Data from publication PMC4136709 (ACS Chemical Biology, 2014).

Columns and labels:
PhaCRe = target: T1, PhaCRe (Cupriavidus necator, UniProt P23608); assay: discontinuous DTNB assay of CoA release; format: biochemical
T1 sequence (P23608 1-589): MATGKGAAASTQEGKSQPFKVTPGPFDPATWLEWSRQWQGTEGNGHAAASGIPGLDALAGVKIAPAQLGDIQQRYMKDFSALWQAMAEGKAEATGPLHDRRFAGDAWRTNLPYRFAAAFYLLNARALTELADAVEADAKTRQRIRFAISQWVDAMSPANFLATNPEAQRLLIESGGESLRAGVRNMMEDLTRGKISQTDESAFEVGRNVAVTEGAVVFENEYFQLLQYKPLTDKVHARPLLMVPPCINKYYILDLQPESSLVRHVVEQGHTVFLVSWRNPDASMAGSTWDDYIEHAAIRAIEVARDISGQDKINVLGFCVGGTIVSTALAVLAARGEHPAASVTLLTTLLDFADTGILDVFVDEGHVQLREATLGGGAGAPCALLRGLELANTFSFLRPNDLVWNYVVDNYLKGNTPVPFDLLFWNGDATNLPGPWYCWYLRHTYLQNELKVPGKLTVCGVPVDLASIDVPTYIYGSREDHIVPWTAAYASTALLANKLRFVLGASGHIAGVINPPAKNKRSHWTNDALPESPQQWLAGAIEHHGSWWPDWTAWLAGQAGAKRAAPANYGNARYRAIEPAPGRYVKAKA

PhaECAv = target: T2, PhaECAv (Allochromatium vinosum, UniProt P45370); assay: discontinuous DTNB assay of CoA release; format: biochemical
T2 sequence (P45370 1-355): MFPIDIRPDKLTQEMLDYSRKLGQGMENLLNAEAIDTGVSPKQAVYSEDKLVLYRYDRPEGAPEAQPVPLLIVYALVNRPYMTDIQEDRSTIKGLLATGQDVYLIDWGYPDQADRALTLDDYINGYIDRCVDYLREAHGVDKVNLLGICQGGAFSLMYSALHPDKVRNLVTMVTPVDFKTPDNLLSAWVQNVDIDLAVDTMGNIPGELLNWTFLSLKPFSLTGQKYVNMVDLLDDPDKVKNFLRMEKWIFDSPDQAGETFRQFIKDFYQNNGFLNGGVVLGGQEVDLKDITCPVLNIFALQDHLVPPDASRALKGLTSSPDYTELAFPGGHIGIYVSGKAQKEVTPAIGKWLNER
T2 sequence (P45372 1-357 partner): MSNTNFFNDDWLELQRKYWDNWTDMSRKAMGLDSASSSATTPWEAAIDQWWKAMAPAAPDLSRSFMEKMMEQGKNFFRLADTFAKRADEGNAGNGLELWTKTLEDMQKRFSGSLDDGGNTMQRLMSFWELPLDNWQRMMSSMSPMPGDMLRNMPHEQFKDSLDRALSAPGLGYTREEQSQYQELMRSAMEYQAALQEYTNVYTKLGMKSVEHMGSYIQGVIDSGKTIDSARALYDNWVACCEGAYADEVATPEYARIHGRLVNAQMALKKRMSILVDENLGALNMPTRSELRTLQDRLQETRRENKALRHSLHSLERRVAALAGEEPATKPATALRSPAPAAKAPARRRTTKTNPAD

Ki (PhaCRe): 14.1 µM
Ki (PhaECAv): 40.1 µM
Compound: C[C@@H](O)CC(=O)CCCNC(=O)CCNC(=O)[C@H](O)C(C)(C)COP(=O)(O)OP(=O)(O)OC[C@H]1O[C@@H](n2cnc3c(N)ncnc32)[C@H](O)[C@@H]1OP(=O)(O)O [compound 1, HBCH2CoA]
